{
  "source": "paper PMC7717705",
  "about": "“Topoisomerases inhibition and DNA binding mode of daunomycin–oligoarginine conjugate” (Journal of Enzyme Inhibition and Medicinal Chemistry, 2020)",
  "key": {"Calf Thymus DNA (ctDNA)": {"test_system": "Calf Thymus DNA (ctDNA)", "assay": "Circular dichroism / induced circular dichroism (ICD) of ctDNA", "format": "binding", "description": "Circular dichroism (CD) measurements were performed on a JascoJ-810 spectropolarimeter using a 0.1 cm path-length quartz cuvette at room temperature and the following parameters: three scans at a speed of 20 nm/min, 3 accumulations, 4 s time constant, 1 nm band width and 0.2 nm data pitch.\nThe spectral bandwidth was set up at 1 nm in the wavelength range of λ = 225–300 nm. The CD spectra of Calf Thymus DNA (ctDNA; 0.2 mg/mL) with or without drug (at selected concentrations) were measured under a nitrogen atmosphere using a 10 mM Tris-HCl buffer at pH 7.5. Results are presented as a mean of three scans and the buffer background was electronically subtracted from each measurement.\nICD measurements were recorded by keeping the concentration of ctDNA constant (0.2 mg/mL) and increasing drugs concentrations from 0 to 120 µM."}, "h-TopoI": {"test_system": "h-TopoI", "assay": "h-TopoI DNA relaxation assay (negatively supercoiled pBluescript plasmid, agarose gel)", "format": "biochemical, human", "conditions": "drug 1.2 uM (not saturating); h-TopoI 100 nM; plasmid 7.5 nM; drug-DNA pre-incubation 10 min at 4 °C, then 60 min at 37 °C; pH 7.0; 1.2% agarose gel, ethidium bromide", "description": "(§1) Human topoisomerase IIα (h-TopoIIα) was purchased from Affymetrix (product number 78303) and stored at −20 °C. Human Topoisomerase I (Sigma, St. Louis, MO). pBluescript (pBs) negatively supercoiled plasmid was directly extracted from an over-night E. coli cell culture by Invitrogen HiPure Plasmid Midi prep Kit according to the instruction of the manufacturers.\n(§2) DNA relaxation assays were performed as previously described[24]^,[25] using the negative supercoiled pBluScript plasmid (pBS) purified from Escherichia coli as a substrate of DNA topoisomerases.\nFor h-TopoI assay the enzyme (100 nM), was incubated for 60 min at 37 °C with negatively supercoiled pBluescript plasmid (7.5 nM) in a final volume of 20 µL of 1X reaction Buffer (10 mM Tris-HCl, pH 7.0, 100 mM NaCl, 0.1 mM NaEDTA, 10 mM MgCL2 and 50 µg/ml BSA). […]\n(§3) All reactions were stopped by the addition of SDS to a final concentration of 1% and the products were analysed by electrophoresis on a 1.2% agarose gel in presence of 0.5X Tris-Borate EDTA buffer. […] Finally the DNA bands were visualised using a BioRad Versadoc imaging system and quantified by Quantity One® software. The relative intensity of each band in the experiment was measured and used to calculate the amount of total DNA and the fraction of total products. For each condition the relaxation activity was expressed as a percentage of DNA products on total DNA[26]."}, "[1]": {"assay": "Fluorescence emission spectrum", "format": "physicochemical", "conditions": "drug 10 µM in 20 mM Tris buffer, pH 7.5; λ = 500–750 nm", "description": "(§4) Fluorescence measurements of Dau and Dau-Arg6 were carried out with a JASCO spectrofluorimeter (FP8200) using Quartz cells of 1 cm. Spectra were recorded at drug concentration of 10 µM in a final volume of 1 ml of 20 mM Tris buffer (pH 7.5)."}, "Calf Thymus-DNA (ctDNA)": {"test_system": "Calf Thymus-DNA (ctDNA)", "assay": "DNA thermal melting monitored by circular dichroism", "format": "binding", "conditions": "4 µM drug, ctDNA 0.2 mg/mL, Tris–HCl buffer, λ = 260 nm", "description": "Melting studies were performed on a JascoJ-810 spectropolarimeter as described above by raising the temperature from 5 to 90 °C in 1 °C/min increments using a circulating water bath and monitoring the profiles at λ = 260 nm.\nThe DNA thermal melting was measured by monitoring the changes of HT[V] signal with temperature. Melting temperatures (Tm) were determined for each transition data by fitting sigmoidal curves using Boltzmann equations and obtaining good R-squared values (>0.95)."}, "h-TopoIIα": {"test_system": "h-TopoIIα", "assay": "h-TopoIIα DNA relaxation assay (negatively supercoiled pBs plasmid, agarose gel)", "format": "biochemical, human", "conditions": "drug 1.2 μM; h-TopoIIα 0.4 units; pBs 7.5 nM; drug-DNA pre-incubation 10 min at 4 °C, then 30 min at 30 °C; pH 7.9, 1 mM ATP; 1.2% agarose gel, ethidium bromide; three independent assays", "description": "as §1, §2\nFor h-TopoII-α assay the enzyme (0.4 units) was incubated for 30 min at 30 °C with negatively supercoiled pBS plasmid (7.5 nM), in a final volume of 20 µl of 1× reaction Buffer (10 mM Tris-HCl, pH 7.9, 50 mM NaCl, 50 mM KCl, 0.1 mM EDTA, 5 mM MgCl2, 15 µg/ml BSA, 1 mM ATP). […]\nas §3"}, "DNA plasmid (pBs)": {"test_system": "DNA plasmid (pBs)", "assay": "Fluorescence quenching titration with plasmid DNA", "format": "binding", "conditions": "drug 10 µM, pBs plasmid 5 to 40 nM, 20 mM Tris pH 7.5, 5 min equilibrium, room temperature", "description": "as §4\nFor quenching experiment fluorescence titrations were conducted by keeping the concentration of drugs constant and varying the concentration of pBs plasmid from 5 to 40 nM. The spectroscopic measurements were recorded after 5 min to reach the equilibrium between the drugs and DNA. The spectra were recorded at room temperature in the wavelengths range of λ = 500–700 nm."}},
  "data": [
    {"smiles": "COc1cccc2c1C(=O)c1c(O)c3c(c(O)c1C2=O)C[C@@](O)(C(C)=O)C[C@@H]3O[C@H]1C[C@H](N)[C@H](O)[C@H](C)O1", "note": "[Dau, daunomycin]", "values": [
      {"measurement": "DNA binding mode", "setting": "Calf Thymus DNA (ctDNA); CD studies with ctDNA 0.2 mg/mL, 10 mM Tris-HCl pH 7.5", "result": "mainly by intercalation"},
      {"measurement": "change of negative CD band of ctDNA at λ = 245 nm", "setting": "Calf Thymus DNA (ctDNA); ctDNA 0.2 mg/mL, 10 mM Tris-HCl pH 7.5, room temperature, increasing drug concentration, mean of three scans", "result": "shifting to zero level"},
      {"measurement": "inhibition of the TopoI activity (DNA relaxation)", "setting": "h-TopoI", "result": 20, "unit": "%"},
      {"measurement": "emission maximum λmax", "setting": "[1]", "result": 596, "unit": "nm"},
      {"measurement": "melting temperature (Tm) of ctDNA with drug", "setting": "Calf Thymus-DNA (ctDNA); 5 to 90 °C at 1 °C/min, Boltzmann fit, ctDNA alone 81.3 °C", "result": 90.3, "unit": "°C"},
      {"measurement": "increase in melting temperature of ctDNA", "setting": "Calf Thymus-DNA (ctDNA); versus ctDNA without drugs (81 °C)", "result": "about 9 °C"},
      {"measurement": "inhibition of the total h-TopoIIα activity (DNA relaxation)", "setting": "h-TopoIIα", "result": 50, "unit": "%"},
      {"measurement": "fluorescence intensity on titration with DNA plasmid", "setting": "DNA plasmid (pBs)", "result": "decreases with increasing concentration of DNA"}
    ]}
  ]
}
